Reference: PMC12630025, “Characterization and inhibitor sensitivity of ARAF, BRAF, and CRAF kinases [drawing 1]” (The Journal of Biological Chemistry, 2025)
Read-outs that look alike come from different tables or passages of the source. Each block holds one compound with its values, some of them ahead of it.

Experiments:
[1] = molecular target: T1, ARAF^SSDD (MEK1^SASA:ARAF^SSDD-14-3-3ε dimer complex) (Homo sapiens, UniProt P10398, G300S/Y301D/Y302D); assay: TR-FRET kinase inhibition assay (phosphorylation of biotinylated MEK1), ARAF dimer complex; format: biochemical; details: for IC50: 10 nM enzyme, 250 nM MEK1, 200 μM ATP, 40 min preincubation, 30 min reaction; for ARAF^SSDD nH (Hill slope): four-parameter fit, 200 μM ATP; for cooperativity of inhibition of ARAF^SSDD: from Hill constants, less than −1.0 indicates positive cooperativity
T1 construct: ARAF^274-606, G300S, Y301/302D-14-3-3 ε with N-terminal His6 and StrepII tags; His6 (N); StrepII (N); made in house; host or cells: SF9 insect cells (baculovirus)
T1 sequence (P10398 274-606 G300S/Y301D/Y302D): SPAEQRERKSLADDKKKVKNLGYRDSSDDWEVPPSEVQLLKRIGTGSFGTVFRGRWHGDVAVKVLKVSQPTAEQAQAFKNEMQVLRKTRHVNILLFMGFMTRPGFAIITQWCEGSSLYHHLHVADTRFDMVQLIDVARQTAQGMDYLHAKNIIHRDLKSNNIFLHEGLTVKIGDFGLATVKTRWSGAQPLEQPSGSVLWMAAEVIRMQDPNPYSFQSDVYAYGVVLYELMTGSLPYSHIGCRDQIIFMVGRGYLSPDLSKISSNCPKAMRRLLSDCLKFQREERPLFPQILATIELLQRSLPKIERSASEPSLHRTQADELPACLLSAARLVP

[2] = molecular target: T2, BRAF^WT (MEK1^SASA:BRAF^WT:14-3-3 dimer complex) (Homo sapiens, UniProt P15056); assay: biochemical; format: biochemical; details: for effect of increasing ATP concentration on IC50 for BRAF^WT dimers: 10, 100, 1000 μM ATP
T2 construct: His6 (N); made in house; host or cells: SF9 insect cells (baculovirus)

[3] = system: BRAF^WT (MEK1^SASA:BRAF^WT:14-3-3 dimer complex); assay: biochemical; format: biochemical; details: IC50 ratio versus BRAF^V600E
[4] = molecular target: T3, BRAF^V600E (MEK1^SASA:BRAF^V600E monomer complex) (Homo sapiens, UniProt P15056, V600E); assay: TR-FRET kinase inhibition assay (phosphorylation of biotinylated MEK1), BRAF V600E monomer complex; format: biochemical
T3 construct: His6 (N); intein (C, cleaved yes); made in house; host or cells: insect cells (baculovirus)

[5] = molecular target: T4, CRAF^WT (MEK1:CRAF^WT:14-3-3 dimer complex) (Homo sapiens, UniProt P04049); assay: TR-FRET kinase inhibition assay (phosphorylation of biotinylated MEK1), CRAF WT dimer complex; format: biochemical; details: for CRAF^WT nH (Hill slope): four-parameter fit
T4 construct: His6 (N); made in house; host or cells: insect cells (baculovirus)

[6] = molecular target: T5, CRAF^SSDD (MEK1^SASA:CRAF^SSDD:14-3-3 dimer complex) (Homo sapiens, UniProt P04049, Y340D/Y341D); assay: TR-FRET kinase inhibition assay (phosphorylation of biotinylated MEK1), CRAF SSDD dimer complex; format: biochemical; details: for CRAF^SSDD nH (Hill slope): four-parameter fit, 200 μM ATP
T5 construct: His6 (N); StrepII (N); made in house; host or cells: insect cells (baculovirus)

BRAF^WT = molecular target: T6, BRAF^WT (Homo sapiens, UniProt P15056); assay: ATP and MEK titrations by TR-FRET (Michaelis constants, substrate inhibition); format: biochemical; details: apparent Ki of substrate inhibition by ATP
T6 construct: His6 (N); made in house; host or cells: SF9 insect cells (baculovirus)

ARAF^SSDD = molecular target: T7, ARAF^SSDD (Homo sapiens, UniProt P10398, G300S/Y301D/Y302D); assay: as above
T7 sequence (P10398 274-606 G300S/Y301D/Y302D): T1 sequence (P10398 274-606 G300S/Y301D/Y302D)

CRAF^WT = CRAF^WT (Homo sapiens, UniProt P04049); assay: as above
CRAF^SSDD = CRAF^SSDD (Homo sapiens, UniProt P04049, Y340D/Y341D); assay: as above
BRAF^KD = BRAF^KD (Homo sapiens, UniProt P15056); assay: as above
BRAF^V600E = BRAF^V600E (Homo sapiens, UniProt P15056, V600E); assay: as above
[7] = system: CRAF^WT (MEK1:CRAF^WT:14-3-3 dimer complex); assay: TR-FRET kinase inhibition assay (phosphorylation of biotinylated MEK1), CRAF WT dimer complex; format: biochemical; details: IC50 ratio ARAF/CRAF
[8] = 1 nM enzyme, 250 nM MEK1, 200 μM ATP, 40 min preincubation, 30 min reaction, read-out: BRAF^WT IC50
[9] = IC50 of BRAF^WT at 10 μM ATP, 10 μM ATP
[10] = IC50 of BRAF^WT at 1000 μM ATP, 1000 μM ATP
[11] = 1 nM enzyme, 250 nM MEK1, 200 μM ATP, 40 min preincubation, three-parameter fit
[12] = 4 nM enzyme, 250 nM MEK1, 200 μM ATP, 40 min preincubation, 30 min reaction, read-out: CRAF^WT IC50
[13] = read-out: IC50 of BRAF^WT at 100 μM ATP, 100 μM ATP

T2 sequence (P15056 419-766, one chain of several): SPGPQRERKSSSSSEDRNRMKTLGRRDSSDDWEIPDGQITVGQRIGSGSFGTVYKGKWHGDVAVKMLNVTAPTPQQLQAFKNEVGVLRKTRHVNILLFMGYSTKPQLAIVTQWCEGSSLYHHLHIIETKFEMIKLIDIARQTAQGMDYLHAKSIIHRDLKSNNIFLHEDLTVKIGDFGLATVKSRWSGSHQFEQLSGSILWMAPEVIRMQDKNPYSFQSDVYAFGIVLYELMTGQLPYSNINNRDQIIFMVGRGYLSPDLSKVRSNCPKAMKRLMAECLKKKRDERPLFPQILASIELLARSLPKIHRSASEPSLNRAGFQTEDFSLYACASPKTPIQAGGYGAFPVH
T6 sequence (P15056 419-766): as the sequence (P15056 419-766, one chain of several) above

SMILES: O=C(c1c(F)ccc(NS(=O)(=O)N2CC[C@@H](F)C2)c1F)c1c[nH]c2ncc(-c3cnc(C4CC4)nc3)cc12 [PLX8394]
IC50 [1]: 0.0596 ± 0.0548 µM
fold less active on ARAF^SSDD dimers than on BRAF^V600E ([1]; IC50 ratio versus BRAF^V600E): about 3 fold
ARAF^SSDD nH (Hill slope) [1]: −0.8
IC50 [2, 8]: 0.054 ± 0.0401 µM
effect of increasing ATP concentration on IC50 for BRAF^WT dimers [2]: shifted as expected
IC50 [2, 9]: 0.0111 ± 0.00784 µM
IC50 ([2]; IC50 of BRAF^WT at 100 μM ATP, 100 μM ATP): 0.0385 ± 0.0342 µM
IC50 [2, 10]: 0.259 ± 0.316 µM
BRAF^WT nH (Hill slope) ([2]; four-parameter fit, 200 μM ATP): −0.9
fold less active on BRAF^WT dimers than on BRAF^V600E [3]: about 3 fold
IC50 [4, 11]: 0.0211 ± 0.00178 µM
IC50 [5, 12]: > 0.999 µM
IC50 ([5]; 200 μM ATP, read-out: CRAF^WT dimers IC50): > 1 µM
CRAF^WT nH (Hill slope) ([5]; 200 μM ATP): −0.5
CRAF^SSDD nH (Hill slope) [6]: −0.5
IC50 ([6]; read-out: CRAF^SSDD IC50): 0.279 ± 0.202 µM

SMILES: Cc1ccc(NC(=O)c2cccc(C(C)(C)C#N)c2)cc1Nc1ccc2ncn(C)c(=O)c2c1 [AZ628]
IC50 [1]: 0.0441 ± 0.0212 µM
ARAF^SSDD nH (Hill slope) [1]: −1.8
cooperativity of inhibition of ARAF^SSDD [1]: clear positive cooperativity
BRAF^WT nH (Hill slope) ([2]; four-parameter fit, 200 μM ATP): −3.1
CRAF^WT nH (Hill slope) ([5]; 200 μM ATP): −1.1
CRAF^SSDD nH (Hill slope) [6]: −2.6

IC50 [1]: 0.0146 ± 0.0039 µM
ARAF^SSDD nH (Hill slope) [1]: −0.6
BRAF^WT nH (Hill slope) [2]: −1.0
IC50 ([5]; CRAF^WT IC50, 4 nM enzyme, 250 nM MEK1, 200 μM ATP, 40 min preincubation, 30 min reaction): 0.0116 ± 0.00119 µM
IC50 ([6]; CRAF^SSDD IC50, 1 nM enzyme, 250 nM MEK1, 200 μM ATP, 40 min preincubation, 30 min reaction): 0.0025 ± 0.00163 µM
SMILES: CN(C)CCOc1ccc(-c2nc(-c3ccncc3)c(-c3ccc4c(c3)CC/C4=N\O)[nH]2)cc1 [SB590885]

ARAF^SSDD nH (Hill slope) [1]: −0.9
CRAF^WT nH (Hill slope) ([5]; 200 μM ATP): −1.2
CRAF^SSDD nH (Hill slope) [6]: −1.3
SMILES: CNC(=O)c1cc(Oc2ccc(NC(=O)Nc3ccc(Cl)c(C(F)(F)F)c3)cc2)ccn1 [Sorafenib]

SMILES: Nc1ncnc2c1ncn2[C@@H]1O[C@H](COP(=O)(O)OP(=O)(O)OP(=O)(O)O)[C@@H](O)[C@H]1O [ATP]
Ki (BRAF^WT): 4840 ± 2850 µM
Ki (ARAF^SSDD; read-out: Ki-ATP, ARAF^SSDD, apparent Ki of substrate inhibition by ATP): > 15000 µM
Km (ARAF^SSDD; read-out: Km-ATP, ARAF^SSDD, ATP titration, substrate inhibition fit): 1.58 ± 0.19 µM
Ki (CRAF^WT; read-out: Ki-ATP, CRAF^WT, apparent Ki of substrate inhibition by ATP): > 15000 µM
Km (CRAF^WT; read-out: Km-ATP, CRAF^WT, ATP titration, substrate inhibition fit): 1.56 ± 1.5 µM
Ki (CRAF^SSDD; read-out: Ki-ATP, CRAF^SSDD, apparent Ki of substrate inhibition by ATP): > 15000 µM
Km (CRAF^SSDD; read-out: Km-ATP, CRAF^SSDD, ATP titration, substrate inhibition fit): 0.73 ± 0.38 µM
Km-ATP, BRAF^KD (BRAF^KD; ATP titration, substrate inhibition fit): 0.18 ± 0.04 µM
Ki (BRAF^KD; read-out: Ki-ATP, BRAF^KD, apparent Ki of substrate inhibition by ATP): 3530 ± 580 µM
Ki (BRAF^V600E; read-out: Ki-ATP, BRAF^V600E, apparent Ki of substrate inhibition by ATP): 6340 ± 4070 µM
Km (BRAF^V600E; read-out: Km-ATP, BRAF^V600E, ATP titration, substrate inhibition fit): 12.6 ± 7.8 µM

SMILES: CCN(C)S(=O)(=O)Nc1ccc(F)c(C(=O)c2c[nH]c3ncc(-c4cnc(C5CC5)nc4)cc23)c1F [PLX7904]
IC50 [1]: 0.899 ± 0.516 µM
ARAF^SSDD nH (Hill slope) [1]: −0.6
IC50 [2, 8]: > 0.999 µM
BRAF^WT nH (Hill slope) ([2]; four-parameter fit, 200 μM ATP): −0.6
IC50 ([2]; read-out: IC50 of BRAF^WT at 10 μM ATP, 10 μM ATP): 0.17 ± 0.121 µM
IC50 [2, 13]: > 1 µM
IC50 ([2]; read-out: IC50 of BRAF^WT at 1000 μM ATP, 1000 μM ATP): > 10 µM
IC50 [4, 11]: 0.32 ± 0.0824 µM
CRAF^WT nH (Hill slope) ([5]; 200 μM ATP): −0.4
CRAF^SSDD nH (Hill slope) [6]: −0.4

SMILES: Cc1ccc(NC(=O)c2ccnc(C(F)(F)F)c2)cc1-c1cc(OCCO)nc(N2CCOCC2)c1 [Naporafenib]
IC50 [1]: 0.161 ± 0.0192 µM
ARAF^SSDD nH (Hill slope) [1]: −3.2
cooperativity of inhibition of ARAF^SSDD [1]: clear positive cooperativity
IC50 [2, 8]: 0.0371 ± 0.023 µM
effect of increasing ATP concentration on IC50 for BRAF^WT dimers [2]: only modestly affected
IC50 [2, 9]: 0.0291 ± 0.00831 µM
IC50 [2, 10]: 0.0549 ± 0.0165 µM
BRAF^WT nH (Hill slope) ([2]; four-parameter fit, 200 μM ATP): −2.3
IC50 [2, 13]: 0.0382 ± 0.0114 µM
IC50 [4]: 0.0513 ± 0.00116 µM
CRAF^WT IC50 ([5]; 4 nM enzyme, 250 nM MEK1, 200 μM ATP, 40 min preincubation, 30 min reaction): single-digit nanomolar
IC50 [5, 12]: 0.00546 ± 0.00267 µM
CRAF^WT nH (Hill slope) ([5]; 200 μM ATP): −1.9
fold greater potency against CRAF dimers than ARAF dimers [7]: approximately 30 fold
CRAF^SSDD IC50 ([6]; 1 nM enzyme, 250 nM MEK1, 200 μM ATP, 40 min preincubation, 30 min reaction): single-digit nanomolar
CRAF^SSDD nH (Hill slope) [6]: −2.6
IC50 ([6]; read-out: CRAF^SSDD IC50): 0.00605 ± 0.00241 µM
